Measured values published in patent US20170281728A1, “METHOD FOR TREATING CANCER USING TETRADRINE” (Board of Supervisors of Louisiana State University and …, priority 2016, published 2017).

Experiments:
DR4 [1] = assay: DR4 mRNA expression by reverse transcriptase PCR, LNCaP cells; assay type: cell-based; conditions: 20 μM Tet, 0-48 hours, normalized to GAPDH
Procedure: (§1) LNCaP and C4-2b cells were used as model cell lines that show resistance to TRAIL. […] In the present study we evaluated the effects of TET alone or in combination with TRAIL and TNF-α. Prostate cancer cell lines LNCaP and LNCaP derived C4-2b were used for this study. Cell lines were treated with TET, TRAIL, or TNF-αalone or in various combinations for different time points. mRNA expression was quantitated via Real Time-PCR and changes in protein expression were analyzed by Western Blot analysis. Cytotoxicity was evaluated using the Crystal violet and MTT survival assay. Turning to FIGS. 6-11, LNCaP and C4-2b cells were incubated in the presence of 20 μM of Tet for different time points (0-48 hours). Total RNA was prepared from the cells and cDNA was transcribed. Reverse transcriptase PCR was performed to determine the mRNA levels of DR4, DR5 and TNF-α. GAPDH was used for normalization. Each data point represents mean+/−standard deviation of three independent gels.

DR5 [2] = assay: DR5 mRNA expression by reverse transcriptase PCR, LNCaP cells; assay type: cell-based; conditions: 20 μM Tet, 0-48 hours, normalized to GAPDH
Procedure: as §1

TNFR1 [3] = assay: TNFR1 mRNA expression by reverse transcriptase PCR, LNCaP cells; assay type: cell-based; conditions: 20 μM Tet, 0-48 hours, normalized to GAPDH
DR4 [4] = assay: DR4 mRNA expression by reverse transcriptase PCR, C4-2b cells; assay type: cell-based; conditions: 20 μM Tet, 0-48 hours, normalized to GAPDH
Procedure: as §1

DR5 [5] = assay: DR5 mRNA expression by reverse transcriptase PCR, C4-2b cells; assay type: cell-based; conditions: 20 μM Tet, 0-48 hours, normalized to GAPDH
Procedure: as §1

TNFR1 [6] = assay: TNFR1 mRNA expression by reverse transcriptase PCR, C4-2b cells; assay type: cell-based; conditions: 20 μM Tet, 0-48 hours, normalized to GAPDH
DR4 [7] = assay: DR4 protein level (array / western blot densitometry), LNCaP cells; assay type: cell-based; conditions: 20 μM TET, versus untreated cells
Procedure: (§2) LNCaP and C4-2b cells were used as model cell lines that show resistance to TRAIL. […] In the present study we evaluated the effects of TET alone or in combination with TRAIL and TNF-α. Prostate cancer cell lines LNCaP and LNCaP derived C4-2b were used for this study. Cell lines were treated with TET, TRAIL, or TNF-αalone or in various combinations for different time points. mRNA expression was quantitated via Real Time-PCR and changes in protein expression were analyzed by Western Blot analysis. Cytotoxicity was evaluated using the Crystal violet and MTT survival assay. […] LNCaP cells were either untreated or treated with 20 μM TET for 24 hours. Arrays were incubated with 400 μg of each cell lysate. Data shown in FIG. 1 are from a 1 minute exposure to X-ray film. […] Fold increase was calculated with the density of untreated LNCaP cells as a reference. Averages are representative of 2 independent experiments. Error bars represent standard deviation. Turning to FIGS. 2A-2C, C4-2b cells were treated with 20 μM TET for 0-48 hours. After the treatments cells were lysed and DR4, DR5 and TNFR1 levels were detected by western blotting. Similarly, in FIGS. 3-5, densiomentry fold increase for DR4, DR5 and TNFR1 western blots is shown. The fold increase was calculated with the density of untreated LNCaP cells as a reference. GAPDH was used as loading control. […]

DR5 [8] = assay: DR5 protein level (array / western blot densitometry), LNCaP cells; assay type: cell-based; conditions: 20 μM TET, versus untreated cells
Procedure: as §2

TNFR1 [9] = assay: TNFR1 protein level (array / western blot densitometry), LNCaP cells; assay type: cell-based; conditions: 20 μM TET, versus untreated cells
Procedure: as §2

DR4 [10] = assay: DR4 protein level by western blotting, C4-2b cells; assay type: cell-based; conditions: 20 μM TET, 0-48 hours, GAPDH loading control
Procedure: (§3) LNCaP and C4-2b cells were used as model cell lines that show resistance to TRAIL. […] In the present study we evaluated the effects of TET alone or in combination with TRAIL and TNF-α. Prostate cancer cell lines LNCaP and LNCaP derived C4-2b were used for this study. Cell lines were treated with TET, TRAIL, or TNF-αalone or in various combinations for different time points. mRNA expression was quantitated via Real Time-PCR and changes in protein expression were analyzed by Western Blot analysis. Cytotoxicity was evaluated using the Crystal violet and MTT survival assay. Turning to FIGS. 2A-2C, C4-2b cells were treated with 20 μM TET for 0-48 hours. After the treatments cells were lysed and DR4, DR5 and TNFR1 levels were detected by western blotting. Similarly, in FIGS. 3-5, densiomentry fold increase for DR4, DR5 and TNFR1 western blots is shown. The fold increase was calculated with the density of untreated LNCaP cells as a reference. GAPDH was used as loading control. Averages are representative of 3 independent experiments. Error bars represent standard deviation.

DR5 [11] = assay: DR5 protein level by western blotting, C4-2b cells; assay type: cell-based; conditions: 20 μM TET, 0-48 hours, GAPDH loading control
Procedure: as §3

TNFR1 [12] = assay: TNFR1 protein level by western blotting, C4-2b cells; assay type: cell-based; conditions: 20 μM TET, 0-48 hours, GAPDH loading control
Procedure: as §3

LNCaP cells = assay: Cytotoxicity by crystal violet staining and MTT survival assay, LNCaP cells; assay type: cell-based; conditions: for response of cells following exposure to the agent alone: TRAIL or TNF-α alone
Procedure: (§4) LNCaP and C4-2b cells were used as model cell lines that show resistance to TRAIL. […] In the present study we evaluated the effects of TET alone or in combination with TRAIL and TNF-α. Prostate cancer cell lines LNCaP and LNCaP derived C4-2b were used for this study. Cell lines were treated with TET, TRAIL, or TNF-αalone or in various combinations for different time points. mRNA expression was quantitated via Real Time-PCR and changes in protein expression were analyzed by Western Blot analysis. Cytotoxicity was evaluated using the Crystal violet and MTT survival assay.
(§5) Turning to FIGS. 12-15, pretreatment of both cell lines with TET for 12 hours, followed by TRAIL and TNF-α treatment for another 24 hours increased the apoptosis inducing potential of TRAIL and TNF-α in these cells. […] For FIGS. 12 and 14, LNCap (FIG. 12) and C4-2b (FIG. 14) cells treated with or without TET, TRAIL, and TNFα were crystal violet stained. Wells are representative of at least three repeats. For FIGS. 13 and 15, LNCap (FIG. 13) and C4-2b (FIG. 15) cells were subjected to MTT assay using the same experimental plan as in FIGS. 12, 14 respectively. Data were normalized to the untreated control at the respective concentrations of TET, TRAIL and TNF-α. Data are representative of at least three repeats.

C4-2b cells = assay: Cytotoxicity by crystal violet staining and MTT survival assay, C4-2b cells; assay type: cell-based; conditions: for response of cells following exposure to the agent alone: TRAIL or TNF-α alone
Procedure: as §4, §5

prostate cancer cells [13] = assay: Apoptosis in prostate cancer cells in vitro; assay type: cell-based
prostate cancer cells [14] = assay: Apoptosis in prostate cancer cells in vivo
[15] = TET pretreatment 12 hours, then TRAIL and TNF-α for another 24 hours

COc1ccc2cc1Oc1ccc(cc1)C[C@H]1c3cc(c(OC)cc3CCN1C)Oc1c(OC)c(OC)cc3c1[C@H](C2)N(C)CC3 [TET, Tetrandrine]
mRNA level of DR4 (DR4 [1]): increased
mRNA level of DR5 (DR5 [2]): increased
mRNA level of TNFR1 (TNFR1 [3]): increased
mRNA level of DR4 (DR4 [4]): increased
mRNA level of DR5 (DR5 [5]): increased
mRNA level of TNFR1 (TNFR1 [6]): increased
protein level of DR4 (DR4 [7]): increased
protein level of DR5 (DR5 [8]): increased
protein level of TNFR1 (TNFR1 [9]): increased
protein level of DR4 (DR4 [10]): increased
protein level of DR5 (DR5 [11]): increased
protein level of TNFR1 (TNFR1 [12]): increased
apoptosis inducing potential of TRAIL and TNF-α after TET pretreatment (LNCaP cells; [15]): increased
apoptosis response to soluble h-TRAIL and TNF-α in combination with TET (LNCaP cells; TET treated cells in vitro): synergistic apoptosis response
apoptosis inducing potential of TRAIL and TNF-α after TET pretreatment (C4-2b cells; [15]): increased
apoptosis response to soluble h-TRAIL and TNF-α in combination with TET (C4-2b cells; TET treated cells in vitro): synergistic apoptosis response
apoptosis in prostate cancer cells (prostate cancer cells [13]): promotes apoptosis
apoptosis in prostate cancer cells (prostate cancer cells [14]): promotes apoptosis

TNF-α
response of cells following exposure to the agent alone (LNCaP cells): did not show a significant response
response of cells following exposure to the agent alone (C4-2b cells): did not show a significant response

B1: TRAIL: protein functioning as a ligand that induces apoptosis; cytokine binding death receptors DR4 and DR5 (protein, UniProt P50591 1-281, looked up)
Tumor necrosis factor ligand …: MAMMEVQGGPSLGQTCVLIVIFTVLLQSLCVAVTYVYFTNELKQMQDKYSKSGIACFLKEDDSYWDPNDEESMNSPCWQVKWQLRQLVRKMILRTSEETISTVQEKQQNISPLVRERGPQRVAAHITGTRGRSNTLSSPNSKNEKALGRKINSWESSRSGHSFLSNLHLRNGELVIHEKGFYYIYSQTYFRFQEEIKENTKNDKQMVQYIYKYTSYPDPILLMKSARNSCWSKDAEYGLYSIYQGGIFELKENDRIFVSVTNEHLIDMDHEASFFGAFLVG
response of cells following exposure to the agent alone (LNCaP cells): did not show a significant response
response of cells following exposure to the agent alone (C4-2b cells): did not show a significant response
